# Reference: patent US4994582A, “Novel antibiotic NK130119” (Nippon Kayaku Kabushiki Kaisha, priority 1989, dated 1991)
# Where two headings read alike, the source gives them in different places.
# Tests used:
# Botrytis cinera = test: antifungal spectrum on potato sucrose agar medium; assay type: cell-based; settings: read-out: Minimum inhibitory concentration
# Excerpt: the antifungal spectrum of the compound of the present invention was examined.
# (*) potato sucrose agar medium was used.
# HeLa S3 cells = test: growth-inhibitory effect on HeLa S3 culture cells, dye exclusion method; assay type: cell-based; settings: Homo sapiens, 72 h
# Experimental: The growth-inhibitory effect of the compound of the present invention on HeLa S3 culture cells was examined. A 96-well plate was inoculated with HeLa S3 cells at a ratio of 1.5×10^3 cells/well and incubated. One day after the inoculation, the compound of the present invention was added to the culture medium at various concentrations. Three days after the addition, cells in each well were counted by the dye exclusion method to thereby evaluate the growth-inhibitory effect of the compound of the present invention at various concentrations on HeLa S3 cells.
# [1] = test system: mouse pulmonary cancer cells (LL); test: growth-inhibitory effect on mouse pulmonary cancer cells, dye exclusion method; assay type: cell-based; settings: 72 h, three days
# Experimental: the growth-inhibitory effects of the compound of the present invention on mouse pulmonary cancer cells (LL) and human plumonary cancer cells (PC-3) were examined.
# A 96-well plate was inoculated with mouse polmonary cancer cells at a ratio of 8.0×10^2 cells per well, while another 96-well plate was inoculated with human pulmonary cancer cells at a ratio of 2.5×10^3 per well. These cells were incubated in an incubator at 37° C. under 5% CO2 for 24 hours. Then the compound of the present invention was added thereto at various concentrations. Cells in each well were counted by the dye exclusion method three days after the addition to thereby evaluate the growth-inhibitory effect of the test compound on the mouse pulmonary cancer cells (LL) and that on the human pulmonary cancer cells (PC-3).
# [2] = test system: human melanoma cells (G361); test: growth-inhibitory effect on human melanoma cells, dye exclusion method; assay type: cell-based; settings: G-361, 72 hours
# Experimental: The growth-inhibitory effects of the compound of the present invention on mouse melanoma cells (B16) and human melanoma cells (G361) were examined. A 96-well plate was inoculated with mouse melanoma cells at a ratio of 1.5×10^3 cells per well, while another 96-well plate was inoculated with human melanoma cells at a ratio of 1.0×10^3 per well. These cells were incubated in an incubator at 37° C. under 5% CO2. Then the compound of the present invention was added thereto at various concentrations. Cells in each well were counted by the dye exclusion method 72 hours after the addition to thereby evaluate the growth-inhibitory effect of the test compound on the mouse melanoma cells and that on the human melanoma cells at various concentrations.
# [3] = test system: vascularization by the Ehrlich asoites tumor cells crude extract; test: vascularization-inhibitory effect, rabbit corneal assay; assay type: in vivo; settings: slow-releasing pellet in cornea
# Experimental: The vascularization-inhibitory effect of the compound of the present invention was examined by rabbit corneal assay reported by M. A. Gimbrone et al. (J. National Cancer Inst., 52, 412 (1974)). Namely, the center of the cornea of the eye of a rabbit was incised with a knife at a length of approximately 2 mm to thereby form a pouch. Then a slow-releasing pellet containing 100 μg of a crude extract of Ehrlich asoites tumor cells, which had been preliminarily prepared according to a method proposed by R. Langer et al. (Nature, 263, 797 ([…])), was introduced into the pouch. Further another slow-releasing pellet containing 0.3 to 81 μg of the compound of the present invention was introduced there into so as to contact these pellets with each other.
# [4] = test system: two-spoted spider mite acarids (a Kelthane-resistant species); test: insecticidal action, mortality of two-spoted spider mite imagos; assay type: in vivo; settings: after 2 days
# Experimental: (§1) The insecticidal action of the compound of the present invention was examined by the following method.
# (1) An imago of two-spoted spider mite acarids (a Kelthane-resistant species) was used as a test vermin, and the mortality rate thereof was assaYed according to an ordinary method (described on page 327 of "NoYaku Seibutsu Kenteiho" edited by Toyoji Hosotsuji).
# Specifically, a solution of the compound of the present invention in acetone (0.1%) was added to 0.5 ml of an aqueous sucrose solution (1%) to have a predetermined concentration. Ten two-spoted spider mite acarids were released in a vessel (20-ml beaker), and the vessel was covered with a paraffin film. The agent solution prepared above was put on the paraffin film, and another praffin film was put thereon. The beaker was allowed to stand in a thermostatic chamber (20°±1° C.) for a predetermined period of time, and the life and death of the test vermin were investigated.
# [5] = test system: larva of mosquito culices (a sensitive species); test: insecticidal action, mortality of mosquito larvae; assay type: in vivo; settings: read-out: Mortality rate, larvae of mosquito
# Experimental: as §1
# (2) A larva of mosquito culices (a sensitive species) was used as a test vermin, and the mortality rate thereof was assayed according to an ordinary method (described on page 109 of "Noyaku Jikkenho I, Sacchuzaihen" published by Soft Science, Inc.).
# Specifically, 10 ml of well water was placed in a vessel (15-ml Petridish), and 5 larvae of mosquito culices (the third stage) were released in the vessel. A solution of the compound of the present invention in acetone (0.1%) was added thereto so as to have a predetermined concentration. The vessel was allowed to stand in a thermostatic chamber (26°±1° C.) for a predetermined period of time, and the life and death of the test vermin were investigated.
# acute toxicity on mice = settings: mouse, in vivo, ip
compound,measurement,setting,value
CCC1/C=C/C=C/CC(C)C(O)C(C)(O)C(=O)C(C)C(O)C(C)C(=O)C(C)C(O)C(C)/C=C/C(=O)OC2C(C)C(CC1)OC1(CCC(C)C(CC(C)O)O1)C2CC (stereo not shown) [NK130119],MIC,Botrytis cinera,6.25 µg/mL
same,inhibition at 0.039 µg/mL,"HeLa S3 cells; HeLa S3, 0.039 μg/ml, three days, read-out: Growth-inhibitory ratio",40%
same,inhibition at 0.156 µg/mL,"HeLa S3 cells; HeLa S3, 0.156 μg/ml, three days, read-out: Growth-inhibitory ratio",43.5%
same,inhibition at 0.625 µg/mL,"HeLa S3 cells; HeLa S3, 0.625 μg/ml, three days, read-out: Growth-inhibitory ratio",47.5%
same,inhibition at 2.5 µg/mL,"HeLa S3 cells; HeLa S3, 2.5 μg/ml, three days, read-out: Growth-inhibitory ratio",55.3%
same,inhibition at 10 µg/mL,"HeLa S3 cells; HeLa S3, 10 μg/ml, three days, read-out: Growth-inhibitory ratio",83.6%
same,IC50,"HeLa S3 cells; HeLa S3 cells, three days after addition",0.987 µg/mL
same,IC50,[1]; mouse pulmonary cancer cells (LL),8.5 ng/mL
same,inhibition at 0.0006 µg/mL,"[1]; mouse pulmonary cancer cells, 0.0006 μg/ml, read-out: Growth-inhibitory ratio",21.6%
same,inhibition at 0.0024 µg/mL,"[1]; mouse pulmonary cancer cells, 0.0024 μg/ml, read-out: Growth-inhibitory ratio",14.5%
same,inhibition at 0.0098 µg/mL,"[1]; mouse pulmonary cancer cells, 0.0098 μg/ml, read-out: Growth-inhibitory ratio",54.4%
same,inhibition at 0.039 µg/mL,"[1]; mouse pulmonary cancer cells, 0.039 μg/ml, read-out: Growth-inhibitory ratio",61%
same,inhibition at 0.156 µg/mL,"[1]; mouse pulmonary cancer cells, 0.156 μg/ml, read-out: Growth-inhibitory ratio",66.2%
same,inhibition at 0.625 µg/mL,"[1]; mouse pulmonary cancer cells, 0.625 μg/ml, read-out: Growth-inhibitory ratio",68.8%
same,inhibition at 2.5 µg/mL,"[1]; mouse pulmonary cancer cells, 2.5 μg/ml, read-out: Growth-inhibitory ratio",83.7%
same,inhibition at 10 µg/mL,"[1]; mouse pulmonary cancer cells, 10 μg/ml, read-out: Growth-inhibitory ratio",102%
same,IC50,[2]; human melanoma cells (G361),1.63 µg/mL
same,inhibition at 0.0006 µg/mL,"[2]; Homo sapiens, G361, 0.0006 μg/ml, read-out: Growth-inhibitory ratio",-2.01%
same,inhibition at 0.0024 µg/mL,"[2]; Homo sapiens, G361, 0.0024 μg/ml, read-out: Growth-inhibitory ratio",5.3%
same,inhibition at 0.0097 µg/mL,"[2]; Homo sapiens, G361, 0.0097 μg/ml, read-out: Growth-inhibitory ratio",10.8%
same,inhibition at 0.039 µg/mL,"[2]; Homo sapiens, G361, 0.039 μg/ml, read-out: Growth-inhibitory ratio",29.6%
same,inhibition at 0.156 µg/mL,"[2]; Homo sapiens, G361, 0.156 μg/ml, read-out: Growth-inhibitory ratio",33.9%
same,inhibition at 0.625 µg/mL,"[2]; Homo sapiens, G361, 0.625 μg/ml, read-out: Growth-inhibitory ratio",36%
same,inhibition at 2.5 µg/mL,"[2]; Homo sapiens, G361, 2.5 μg/ml, read-out: Growth-inhibitory ratio",56.2%
same,inhibition at 10 µg/mL,"[2]; Homo sapiens, G361, 10 μg/ml, read-out: Growth-inhibitory ratio",89.6%
same,retardation of vascularization compared with control group,[3]; 1 μg or above,significantly retarded till the fourth day
same,retardation of vascularization compared with control group,[3]; 2.7 ug or above,till the eighth day
same,"Mortality rate, imagos of two-spoted spider mite",[4]; 1 ppm,20%
same,"Mortality rate, imagos of two-spoted spider mite",[4]; 10 ppm,60%
same,"Mortality rate, imagos of two-spoted spider mite",[4]; 100 ppm,100%
same,mortality at 1 ppm,"[5]; 48 h, after 2 days",73%
same,mortality at 10 ppm,"[5]; 48 h, after 2 days",100%
same,mortality at 1 ppm,"[5]; 144 h, after 6 days",80%
same,mortality at 10 ppm,"[5]; 144 h, after 6 days",100%
same,mortality at 1 ppm,"[5]; 216 h, after 9 days",80%
same,mortality at 10 ppm,"[5]; 216 h, after 9 days",100%
same,LD50,acute toxicity on mice,0.05 mg/kg
